Laboratory results reported in ChEMBL document CHEMBL6078684, “Discovery of a Novel Non-invasive AR PROTAC Degrader for the Topical Treatment of Androgenetic Alopecia” (J Med Chem, 2024).
Active and inactive are the calls of the source. No cut-off for these calls is given here.

Assays:
[1] = biological target: T1, Protein cereblon/Androgen receptor (Homo sapiens, UniProt P10275+Q96SW2); assay: PROTAC activity at CRBN/AR in human dermal papilla cells assessed as decrease in AR protein level at 1 uM preincubated with testosterone for 24 hrs followed by compound addition and measured after 48 hrs by Western blot analysis; format: cell-based; conditions: Human dermal papilla cell
T1 sequence (P10275 whole entry, looked up): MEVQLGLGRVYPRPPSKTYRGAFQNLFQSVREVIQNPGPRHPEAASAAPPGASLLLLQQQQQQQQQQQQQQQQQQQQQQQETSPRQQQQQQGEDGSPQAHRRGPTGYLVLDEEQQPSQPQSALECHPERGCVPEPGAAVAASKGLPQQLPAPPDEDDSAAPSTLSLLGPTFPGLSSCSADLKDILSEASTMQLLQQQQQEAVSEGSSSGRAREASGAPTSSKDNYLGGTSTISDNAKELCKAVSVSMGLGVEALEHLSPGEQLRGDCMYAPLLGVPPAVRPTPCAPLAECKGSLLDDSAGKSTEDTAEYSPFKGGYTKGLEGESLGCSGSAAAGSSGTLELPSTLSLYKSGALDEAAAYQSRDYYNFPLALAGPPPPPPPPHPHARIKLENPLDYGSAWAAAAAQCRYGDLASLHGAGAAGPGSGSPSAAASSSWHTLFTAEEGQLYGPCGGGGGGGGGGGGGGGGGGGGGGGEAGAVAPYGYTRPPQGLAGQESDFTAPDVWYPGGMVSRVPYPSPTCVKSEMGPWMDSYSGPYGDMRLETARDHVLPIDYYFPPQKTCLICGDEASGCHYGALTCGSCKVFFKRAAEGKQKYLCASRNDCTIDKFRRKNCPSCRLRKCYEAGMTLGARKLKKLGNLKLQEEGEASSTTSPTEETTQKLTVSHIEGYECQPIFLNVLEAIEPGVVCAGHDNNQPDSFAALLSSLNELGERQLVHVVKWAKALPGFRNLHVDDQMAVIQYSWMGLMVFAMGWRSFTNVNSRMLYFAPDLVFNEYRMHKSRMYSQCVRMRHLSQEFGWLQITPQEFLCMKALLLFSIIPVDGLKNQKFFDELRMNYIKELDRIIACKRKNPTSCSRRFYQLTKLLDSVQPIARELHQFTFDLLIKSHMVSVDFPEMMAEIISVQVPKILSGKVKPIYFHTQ
T1 sequence (Q96SW2 whole entry, looked up): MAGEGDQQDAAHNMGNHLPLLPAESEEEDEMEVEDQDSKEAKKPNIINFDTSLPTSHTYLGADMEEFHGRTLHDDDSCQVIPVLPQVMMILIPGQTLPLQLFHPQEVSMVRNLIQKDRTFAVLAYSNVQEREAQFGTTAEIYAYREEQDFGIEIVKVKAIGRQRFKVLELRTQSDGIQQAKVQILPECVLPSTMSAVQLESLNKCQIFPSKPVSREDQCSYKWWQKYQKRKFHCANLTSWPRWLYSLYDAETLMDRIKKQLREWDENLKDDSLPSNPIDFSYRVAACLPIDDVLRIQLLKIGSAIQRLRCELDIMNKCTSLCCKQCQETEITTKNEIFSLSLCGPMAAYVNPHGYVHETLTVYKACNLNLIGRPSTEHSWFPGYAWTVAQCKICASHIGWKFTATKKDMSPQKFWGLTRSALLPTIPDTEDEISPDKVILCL

[2] = biological target: T1, Protein cereblon/Androgen receptor; assay: PROTAC activity at CRBN/AR in human dermal papilla cells assessed as increase in beta-catenin protein level at 250 to 1000 nM preincubated with testosterone for 24 hrs followed by compound addition and measured after 48 hrs by Western blot analysis; format: cell-based; conditions: Human dermal papilla cell, dose 250-1000 nM
[3] = Ratio of drug concentration in male ICR mouse skin to heart at 4 mg/ml, TOP measured after 0.5 hrs by LC-MS/MS analysis; format: ADME, tissue-based; conditions: in vivo, topical_or_ocular
[4] = Drug uptake in male ICR mouse lung at 4 mg/ml, TOP measured after 12 hrs by LC-MS/MS analysis; format: ADME, tissue-based; conditions: in vivo, topical_or_ocular
[5] = Ratio of drug concentration in male ICR mouse skin to heart at 4 mg/ml, TOP measured after 4 hrs by LC-MS/MS analysis; format: ADME, tissue-based; conditions: in vivo, topical_or_ocular
[6] = Ratio of drug concentration in male ICR mouse skin to liver at 4 mg/ml, TOP measured after 0.5 hrs by LC-MS/MS analysis; format: ADME, tissue-based; conditions: in vivo, topical_or_ocular
[7] = Ratio of drug concentration in male ICR mouse skin to liver at 4 mg/ml, TOP measured after 8 hrs by LC-MS/MS analysis; format: ADME, tissue-based; conditions: in vivo, topical_or_ocular
[8] = Ratio of drug concentration in male ICR mouse skin to spleen at 4 mg/ml, TOP measured after 2 hrs by LC-MS/MS analysis; format: ADME, tissue-based; conditions: in vivo, topical_or_ocular
[9] = Ratio of drug concentration in male ICR mouse skin to spleen at 4 mg/ml, TOP measured after 8 hrs by LC-MS/MS analysis; format: ADME, tissue-based; conditions: in vivo, topical_or_ocular
[10] = Ratio of drug concentration in male ICR mouse skin to lungs at 4 mg/ml, TOP measured after 0.25 hrs by LC-MS/MS analysis; format: ADME, tissue-based, Skin/Lung; conditions: in vivo, topical_or_ocular
[11] = Ratio of drug concentration in male ICR mouse skin to kidney at 4 mg/ml, TOP measured after 0.5 hrs by LC-MS/MS analysis; format: ADME, tissue-based; conditions: in vivo, topical_or_ocular
[12] = biological target: Protein cereblon/Androgen receptor (Mus musculus) (UniProt P19091+Q8C7D2); assay: In vivo PROTAC activity at CRBN/AR in testosterone induced male C57BL/6 mouse androgenetic alopecia model assessed as decrease in AR protein level in skin at 0.1 to 0.4 % TOP administered once daily for 14 days with co-administration of 0.2% testosterone for 28 days by Western blot analysis; format: functional, organism-based; conditions: dose 0.1-0.4 %, time 14.0 day
Chain of Protein cereblon/Androgen receptor (Mus musculus) (P19091 whole entry, looked up): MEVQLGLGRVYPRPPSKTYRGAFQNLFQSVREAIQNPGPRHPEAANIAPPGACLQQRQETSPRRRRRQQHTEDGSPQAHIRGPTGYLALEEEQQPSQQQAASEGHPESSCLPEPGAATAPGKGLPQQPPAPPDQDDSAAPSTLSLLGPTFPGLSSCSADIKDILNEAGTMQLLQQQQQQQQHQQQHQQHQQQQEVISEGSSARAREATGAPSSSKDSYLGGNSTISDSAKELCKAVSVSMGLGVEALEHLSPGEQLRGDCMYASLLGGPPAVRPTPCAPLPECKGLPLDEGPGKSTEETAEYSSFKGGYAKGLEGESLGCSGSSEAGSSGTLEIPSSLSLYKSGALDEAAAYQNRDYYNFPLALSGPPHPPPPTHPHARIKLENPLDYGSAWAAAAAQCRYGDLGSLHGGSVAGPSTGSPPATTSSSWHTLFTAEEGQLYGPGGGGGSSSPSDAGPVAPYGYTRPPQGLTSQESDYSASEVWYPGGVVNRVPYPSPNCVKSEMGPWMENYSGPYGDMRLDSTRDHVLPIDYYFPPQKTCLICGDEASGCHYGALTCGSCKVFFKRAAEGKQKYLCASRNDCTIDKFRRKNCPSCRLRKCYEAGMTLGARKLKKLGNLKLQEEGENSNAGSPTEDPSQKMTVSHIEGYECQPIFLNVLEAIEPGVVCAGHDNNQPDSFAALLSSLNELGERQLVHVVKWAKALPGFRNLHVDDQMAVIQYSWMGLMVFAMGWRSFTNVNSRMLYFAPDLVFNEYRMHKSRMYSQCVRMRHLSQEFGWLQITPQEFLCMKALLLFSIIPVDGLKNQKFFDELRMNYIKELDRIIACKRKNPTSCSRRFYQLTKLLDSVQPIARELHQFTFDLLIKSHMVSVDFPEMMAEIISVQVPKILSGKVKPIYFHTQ
Chain of Protein cereblon/Androgen receptor (Mus musculus) (Q8C7D2 whole entry, looked up): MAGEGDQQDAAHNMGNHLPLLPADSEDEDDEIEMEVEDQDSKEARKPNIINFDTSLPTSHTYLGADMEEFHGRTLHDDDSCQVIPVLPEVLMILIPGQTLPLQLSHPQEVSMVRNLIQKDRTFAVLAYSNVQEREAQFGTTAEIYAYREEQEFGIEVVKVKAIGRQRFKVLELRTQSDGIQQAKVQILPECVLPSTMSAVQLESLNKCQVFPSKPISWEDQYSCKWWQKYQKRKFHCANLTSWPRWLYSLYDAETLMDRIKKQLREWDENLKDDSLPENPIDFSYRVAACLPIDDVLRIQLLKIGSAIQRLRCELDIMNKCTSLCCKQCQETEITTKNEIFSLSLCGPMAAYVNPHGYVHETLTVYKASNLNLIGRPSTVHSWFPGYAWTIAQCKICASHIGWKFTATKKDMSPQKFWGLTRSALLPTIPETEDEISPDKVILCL

Mus musculus [13] = assay: Hair regeneration efficacy in testosterone induced male C57BL/6 mouse androgenetic alopecia model assessed as well formed stratum corneum in hair at 0.4 %, TOP administered once daily for 14 days with co-administration of 0.2% testosterone and measured after 28 days by SEM analysis; format: functional, organism-based; conditions: time 28.0 day
Mus musculus [14] = assay: Hair regeneration efficacy in testosterone induced male C57BL/6 mouse androgenetic alopecia model assessed as increase in hair diameter at 0.1 %, TOP administered once daily for 14 days with co-administration of 0.2% testosterone and measured after 28 days by SEM analysis; format: functional, organism-based; conditions: time 28.0 day
Mus musculus [15] = assay: Hair regeneration efficacy in testosterone induced male C57BL/6 mouse androgenetic alopecia model assessed as increase in hair cycle score at 0.1 %, TOP administered once daily for 14 days with co-administration of 0.2% testosterone for 28 days; format: functional, organism-based; conditions: time 14.0 day

Activity [2]: Active
Ratio [3]: 119.61
Drug uptake [4]: Active
Ratio [5]: 403.09
Ratio [6]: 465.04
Ratio [7]: 196.27
Ratio [8]: 450.95
Ratio [9]: 347.97
Ratio [10]: 269.54
Ratio [11]: 190.39
Activity [12]: Active
Compound: N#Cc1ccc(O[C@H]2CC[C@H](NC(=O)c3ccc(C4CCN(CC5CCCN(c6ccc(C(=O)NC7CCC(=O)NC7=O)cc6)C5)CC4)cc3)CC2)cc1Cl (stereo not given in full)
Activity [1]: Active; Most Pronounced Degradation Observed
Activity (Mus musculus [13]): Active
Activity (Mus musculus [14]): Active
Activity (Mus musculus [15]): Active; Less Effective Compared To High Dose Compound Group And Minoxidil Group
